“Also recorded” adds a separate entry of the source.
Experiments:
[1] = system: H460 NSCLC human xenograft; test: H460 NSCLC human xenograft model, tumor growth; assay type: in vivo, NOD/SCID mice; conditions: for median tumor volume: day 24, i.p. daily; for median tumor volume / tumor weight smaller than vehicle: losartan 50 mg/kg, astemizole 10 mg/kg; for tumor weight smaller than vehicle: last day of study, i.p. daily, p<0.01
[2] = mouse, in vivo
[3] = system: NSCLC cancer cell lines H1299, A459, H460; test: MTT proliferation assay, NSCLC cell panel; assay type: cell-based, Human; conditions: for EC50: Homo sapiens
[4] = system: non-cancer WI38 fibroblast cell line; test: MTT proliferation assay in WI38 fibroblasts; assay type: cell-based; conditions: for effect on WI38 proliferation: compared with the NSCLC lines
H460 = test: MTT proliferation assay in H460 cells; assay type: cell-based, Human; conditions: 3 days
[5] = system: H460 NSCLC human xenograft; test: Histopathology of resected tumors, mitotic index; assay type: in vivo, NOD/SCID mice

| Compound | median tumor volume [1] | tumor weight smaller than vehicle [1] [%] | animal's body weight [2] | EC50 [3] [µM] | effect on WI38 proliferation [4] | also measured |
| --- | --- | --- | --- | --- | --- | --- |
| COc1ccc(CCN2CCC(Nc3nc4ccccc4n3Cc3ccc(F)cc3)CC2)cc1 [Astemizole] | 2,810 mm^3 | 15 | no significant alteration |  |  | number of mice with tumors that weighed less than 3.2 g ([1]; astemizole group n = 9, smallest vehicle tumor 3.2 g): Three |
| C=C(c1ccc(C(=O)O)cc1)c1cc2c(cc1C)C(C)(C)CCC2(C)C [Bexarotene] |  |  |  | ~50 | weaker effect on WI38 proliferation |  |
| Cc1nc(Nc2ncc(C(=O)Nc3c(C)cccc3Cl)s2)cc(N2CCN(CCO)CC2)n1 [Dasatinib] |  |  |  |  |  | EC50 ([4]; WI38, MTT, 3 days): sub-micromolar |
| CN1C[C@H](C(=O)N[C@]2(C)O[C@@]3(O)[C@@H]4CCCN4C(=O)[C@H](Cc4ccccc4)N3C2=O)C=C2c3cccc4[nH]cc(c34)C[C@H]21 [Ergotamine] |  |  |  |  | significantly less effect on WI38 | EC50 (H460): 26 ± 1 µM |
| CS(=O)(=O)CCNCc1ccc(-c2ccc3ncnc(Nc4ccc(OCc5cccc(F)c5)c(Cl)c4)c3c2)o1 [Lapatinib] |  |  |  | 30 to 40 |  |  |
| CCCCc1nc(Cl)c(CO)n1Cc1ccc(-c2ccccc2-c2nn[nH]n2)cc1 [Losartan] | 2,463 mm^3 | 50 | no significant alteration |  |  | cytotoxicity ([3]; concentrations up to 100 μM): very little cytotoxicity; number of mice with tumors that weigh less than 2.5 g ([1]; losartan group n = 10, none of the vehicle): Four; G2M arrest in the cell cycle ([5]; histopathology of resected tumors): significant propensity to cause G2M arrest; also recorded: induced more significant G2M arrest; mitotic index (MI) ([5]; ratio of mitotic to non-mitotic cells in tumor tissue, vehicle 7): 18 |
